What was measured:
Type in all cases: cell-based
Design in all cases: key: Compounds which showed superior inhibition of S. aureus, S. pseumoniae and E. coli are indicated by “***,”; compounds which showed very good or good inhibition of S. aureus, S. pseumoniae and E. coli are indicated by “**” or “*” respectively; compounds which showed very good or good inhibition of S. aureus, S. pseumoniae and E. coli are indicated by “**” or “*” respectively
Details in all cases: broth microdilution in CAMHB, 35° C., approximately 18 hour
[1] = system: S. aureus RN450; assay: In vitro minimum inhibitory concentration (MIC) assay, S. aureus
Procedure: (§1) The following assay is used to determine the efficacy of the tetracycline compounds against common bacteria. 2 mg of each compound is dissolved in 100 μl of DMSO. The solution is then added to cation-adjusted Mueller Hinton broth (CAMHB), which results in a final compound concentration of 200 μg per ml. The tetracycline compound solutions are diluted to 50 μL volumes, with a test compound concentration of 0.098 μg/ml. Optical density (OD) determinations are made from fresh log-phase broth cultures of the test strains. Dilutions are made to achieve a final cell density of 1×10^6 CFU/ml. At OD=1, cell densities for different genera should be approximately:
(§2) 50 μl of the cell suspensions are added to each well of microtiter plates. The final cell density should be approximately 5×10^5 CFU/ml. These plates are incubated at 35° C. in an ambient air incubator for approximately 18 hour. The plates are read with a microplate reader and are visually inspected when necessary. The MIC is defined as the lowest concentration of the tetracycline compound that inhibits growth.
(§3) Table 3 gives the MIC (μg/mL) of selected substituted tetracycline compounds against S. aureus, S. pseuimoniae, and E. coli.

[2] = system: S. pneumoniae 157E; assay: In vitro minimum inhibitory concentration (MIC) assay, S. pneumoniae
Procedure: as §1, §2, §3

[3] = system: E. coli MG 1655; assay: In vitro minimum inhibitory concentration (MIC) assay, E. coli
Procedure: as §1, §2, §3

| SMILES | Median MIC for S. aureus RN450 [1] | Median MIC for S. pneumoniae 157E [2] | Median MIC for E. coli MG 1655 [3] |
| --- | --- | --- | --- |
| CN(C)c1cc(C(=O)NOC(C)(C)C)c(O)c2c1C[C@H]1C[C@H]3[C@H](N(C)C)C(O)=C(C(N)=O)C(=O)[C@@]3(O)C(O)=C1C2=O | * | * | * |
| CN(C)c1cc(C(=O)N2CCCCCC2)c(O)c2c1C[C@H]1C[C@H]3[C@H](N(C)C)C(O)=C(C(N)=O)C(=O)[C@@]3(O)C(O)=C1C2=O | ** | * | * |
| CN(C)c1cc(-c2cn[nH]c2)c(O)c2c1C[C@H]1C[C@H]3[C@H](N(C)C)C(O)=C(C(N)=O)C(=O)[C@@]3(O)C(O)=C1C2=O | * | * | * |
| CC(=O)NCCNC(=O)c1cc(N(C)C)c2c(c1O)C(=O)C1=C(O)[C@]3(O)C(=O)C(C(N)=O)=C(O)[C@@H](N(C)C)[C@@H]3C[C@@H]1C2 | * | * | * |
| CCCNC(=O)c1cc(N(C)C)c2c(c1O)C(=O)C1=C(O)[C@]3(O)C(=O)C(C(N)=O)=C(O)[C@@H](N(C)C)[C@@H]3C[C@@H]1C2 | * | * | * |
| CN(C)c1cc(-c2cc[nH]n2)c(O)c2c1C[C@H]1C[C@H]3[C@H](N(C)C)C(O)=C(C(N)=O)C(=O)[C@@]3(O)C(O)=C1C2=O | *** | ** | * |
| CNC(=O)c1cc(N(C)C)c2c(c1O)C(=O)C1=C(O)[C@]3(O)C(=O)C(C(N)=O)=C(O)[C@@H](N(C)C)[C@@H]3C[C@@H]1C2 | * | * | * |
| CCCN(CC)C(=O)c1cc(N(C)C)c2c(c1O)C(=O)C1=C(O)[C@]3(O)C(=O)C(C(N)=O)=C(O)[C@@H](N(C)C)[C@@H]3C[C@@H]1C2 | * | * | * |
| CN(C)c1cc(-c2cnoc2)c(O)c2c1C[C@H]1C[C@H]3[C@H](N(C)C)C(O)=C(C(N)=O)C(=O)[C@@]3(O)C(O)=C1C2=O | *** | *** | * |
| CN(C)c1cc(C(=O)NCCO)c(O)c2c1C[C@H]1C[C@H]3[C@H](N(C)C)C(O)=C(C(N)=O)C(=O)[C@@]3(O)C(O)=C1C2=O | * | * | * |
| CN(C)c1cc(C(=O)C(=O)O)c(O)c2c1C[C@H]1C[C@H]3[C@H](N(C)C)C(O)=C(C(N)=O)C(=O)[C@@]3(O)C(O)=C1C2=O | ** | * | * |
| CCNC(=O)c1cc(N(C)C)c2c(c1O)C(=O)C1=C(O)[C@]3(O)C(=O)C(C(N)=O)=C(O)[C@@H](N(C)C)[C@@H]3C[C@@H]1C2 | * | * | * |
| CN(C)c1cc(-c2ccc(C#N)nc2)c(O)c2c1C[C@H]1C[C@H]3[C@H](N(C)C)C(O)=C(C(N)=O)C(=O)[C@@]3(O)C(O)=C1C2=O | *** | *** | * |
| CN(C)c1cc(-c2cccc(C(N)=O)c2)c(O)c2c1C[C@H]1C[C@H]3[C@H](N(C)C)C(O)=C(C(N)=O)C(=O)[C@@]3(O)C(O)=C1C2=O | *** | ** | * |
| CN(C)c1cccc(-c2cc(N(C)C)c3c(c2O)C(=O)C2=C(O)[C@]4(O)C(=O)C(C(N)=O)=C(O)[C@H](N(C)C)[C@@H]4C[C@@H]2C3)c1 | *** | *** | * |

Continued, values first:

| Median MIC for S. aureus RN450 [1] | Median MIC for S. pneumoniae 157E [2] | Median MIC for E. coli MG 1655 [3] | SMILES |
| --- | --- | --- | --- |
| * | * | * | CN(C)c1cc(-c2ccc(C(=O)O)s2)c(O)c2c1C[C@H]1C[C@H]3[C@H](N(C)C)C(O)=C(C(N)=O)C(=O)[C@@]3(O)C(O)=C1C2=O |
| *** | *** | * | CC(=O)c1cccc(-c2cc(N(C)C)c3c(c2O)C(=O)C2=C(O)[C@]4(O)C(=O)C(C(N)=O)=C(O)[C@@H](N(C)C)[C@@H]4C[C@@H]2C3)c1 |
| * | *** | * | CCONC(=O)c1cc(N(C)C)c2c(c1O)C(=O)C1=C(O)[C@]3(O)C(=O)C(C(N)=O)=C(O)[C@@H](N(C)C)[C@@H]3C[C@@H]1C2 |
| * | ** | * | CN(C)c1cc(-c2ccc(C(N)=O)cc2)c(O)c2c1C[C@H]1C[C@H]3[C@H](N(C)C)C(O)=C(C(N)=O)C(=O)[C@@]3(O)C(O)=C1C2=O |
| *** | *** | ** | CN(C)c1cc(C#N)c(O)c2c1C[C@H]1C[C@H]3[C@H](N(C)C)C(O)=C(C(N)=O)C(=O)[C@@]3(O)C(O)=C1C2=O |
| * | * | * | COC(=O)CNC(=O)c1cc(N(C)C)c2c(c1O)C(=O)C1=C(O)[C@]3(O)C(=O)C(C(N)=O)=C(O)[C@@H](N(C)C)[C@@H]3C[C@@H]1C2 |
| *** | *** | * | CN(C)c1cc(-c2ccsc2)c(O)c2c1C[C@H]1C[C@H]3[C@H](N(C)C)C(O)=C(C(N)=O)C(=O)[C@@]3(O)C(O)=C1C2=O |
| * | * | * | CN(C)c1cc(C(=O)NO)c(O)c2c1C[C@H]1C[C@H]3[C@H](N(C)C)C(O)=C(C(N)=O)C(=O)[C@@]3(O)C(O)=C1C2=O |
| *** | *** | * | CN(C)c1cc(C#N)c(O)c2c1C[C@H]1C[C@H]3[C@@H](N(C)C)C(O)=C(C(N)=O)C(=O)C3(O)C(O)=C1C2=O (stereo partly drawn) |
| *** | *** | * | CN(C)c1cc(-c2cncnc2)c(O)c2c1C[C@H]1C[C@H]3[C@H](N(C)C)C(O)=C(C(N)=O)C(=O)[C@@]3(O)C(O)=C1C2=O |
| ** | ** | * | CN(C)c1cc(-c2cccnc2)c(O)c2c1C[C@H]1C[C@H]3[C@H](N(C)C)C(O)=C(C(N)=O)C(=O)[C@@]3(O)C(O)=C1C2=O |
| *** | *** | * | CN(C)c1cc(-c2ccncc2)c(O)c2c1C[C@H]1C[C@H]3[C@H](N(C)C)C(O)=C(C(N)=O)C(=O)[C@@]3(O)C(O)=C1C2=O |
| * | * | * | CC(=O)c1cc(N(C)C)c2c(c1O)C(=O)C1=C(O)[C@]3(O)C(=O)C(C(N)=O)=C(O)[C@H](N(C)C)[C@@H]3C[C@@H]1C2 |
| *** | *** | * | CN(C)c1cc(C(=O)Nc2ccccc2)c(O)c2c1C[C@H]1C[C@H]3[C@H](N(C)C)C(O)=C(C(N)=O)C(=O)[C@@]3(O)C(O)=C1C2=O |
| *** | *** | * | CC(=O)Nc1ccc(-c2cc(N(C)C)c3c(c2O)C(=O)C2=C(O)[C@]4(O)C(=O)C(C(N)=O)=C(O)[C@@H](N(C)C)[C@@H]4C[C@@H]2C3)cn1 |
| *** | *** | * | CCC(=O)c1cc(N(C)C)c2c(c1O)C(=O)C1=C(O)[C@]3(O)C(=O)C(C(N)=O)=C(O)[C@@H](N(C)C)[C@@H]3C[C@@H]1C2 |
